Reference: patent US5212167A, “Modulation of receptor-mediated ion transport” (Trustees of Boston University, priority 1991, dated 1993)
Where a name gives a salt, the structure may show the parent alone.

Legend:
[1] = system: NMDA receptor; experiment: Whole-cell patch clamp, NMDA-induced currents in cultured chick spinal cord neurons; conditions: for enhancement of the NMDA response (percent change): 100 μM pregnenolone sulfate
Experimental: (§1) Cultures of dissociated spinal cord neurons were prepared from 7-day chick embryos as described by Wu et al. (Mol. Pharmacol. 37:597-602 (1990)). Briefly, dissociated cells were plated on collagen-coated 35-mm tissue culture dishes in Eagle's minimum essential medium supplemented with 2.4 mM glutamine, 10% (v/v) heat-inactivated horse serum, 5% (v/v) chick embryo extract, 100 units/ml penicillin, and 100 μg/ml streptomycin. Cultures were maintained in a humidified atmosphere of 5% CO2 /95% air at 37° C. Cytosine arabinoside (1 μM) was added after 36 hours to control the proliferation of non-neuronal cells. This medium was removed one day later and replaced with a similar medium supplemented with 20.5 mM glucose and 18 mM KCl, and containing 2.5% chick embryo extract. Fresh medium was added twice weekly. Cultured neurons were used in experiments 2-4 weeks after plating.
(§2) Electrophysiological experiments were carried out in 35-mm tissue culture dishes on the stage of an inverted phase-contrast microscope. Whole-cell currents were recorded by the whole-cell variant of the patch clamp technique described by Hamill et al. (Pflugers Arch. 391:85-100 (1981)). Patch electrodes were fabricated with a double pull from thin-wall borosilicate glass microcapillary pipets (Fischer) on a David Kopf vertical pipet puller (Model 700D). Electrode resistance was 5.2±0.12 M.OMEGA. (n=65) when filled with intracellular solution. The electrode solution usually contained (in mM): 10 KCl, 3 sodium gluconate, 140 potassium gluconate, 11 EGTA and 10 HEPES (pH adjusted to 7.2 with KOH). For GABA experiments, a high Cl-intracellular solution (in mM, 140 KCl, 3 NaCl, 1 MgCl2, 11 EGTA and 10 HEPES, pH adjusted to 7.2 with KOH) was used. The bath solution contained (in mM): 150 NaCl, 4 KCl, 1 CaCl2, 1 MgCl2 and 10 HEPES (pH adjusted to 7.2 with NaOH). Since NMDA-induced currents are subject to voltage-dependent block by extracellular Mg^2+, no magnesium salts were added to the bath solution. All experiments were performed at room temperature (23°-25° C.).
Recordings were made using a Yale MK V amplifier. After forming a tight seal (typically 1-10 G.OMEGA.) capacitative transients were minimized. The patch of membrane under the pipet tip was then ruptured by gentle suction to obtain the whole-cell configuration. Cells with series resistance greater than 10 M.OMEGA. were rejected. Series resistance, which initially measured 7.3± 0.14 M.OMEGA. (n=65), was compensated (>60%). Only cells with resting membrane potential more negative than -55 mV and input resistance in excess of 150 M.OMEGA. were used. All recordings were made with the cell membrane potential clamped at -70 mV. Currents were filtered at 1 kHz using an 8-pole Bessel filter and digitized (40 ms/point) using an on-line data acquisition system (pClamp, Axon Instruments).
Drug solutions were applied to single neurons by pressure ejection (15 psi) from 7-barrel pipets (Choi et al., J. Neurophysiol 45:605-620 (1981) and Chan, C. Y. and D. H. Farb, J. Neurosci. 5:2365-2373 (1985)). Pipets were pulled from Omega dot tubing to a tip diameter of about 1 μm per barrel and broken back to about 3-5 μm per barrel after filling. Seven-barrel pressure pipets were positioned approximately 50μm from the neuronal soma. Under these conditions, the drug solution in the pressure pipet rapidly and effectively replaces the solution surrounding the target neuron, with less than 10% dilution (Choi and Fischbach, J. Neurophysiol. 45:605-620 (1981)).
All drugs were obtained from Sigma, with the exception of AMPA hydrobromide (Research Biochemicals) and pregnenolone sodium sulfate (Steraloids). Stock solutions of steroids were prepared in dimethyl sulfoxide (final concentration, 0.5%, v/v).

[2] = system: glycine receptor; experiment: Whole-cell patch clamp, glycine-induced currents in cultured chick spinal cord neurons; assay type: cell-based; conditions: for inhibition of the glycine response: 50 μM glycine, n=6
Experimental: as §1
as §2, with “All experiments were performed at room temperature (23°-25° C.).” left out
(§3) Recordings were made using a Yale MK V amplifier. […] Series resistance, which initially measured 7.3± 0.14 M.OMEGA. […]

[3] = system: GABA receptor; experiment: Whole-cell patch clamp, GABA-induced currents in cultured chick spinal cord neurons; assay type: cell-based
Experimental: as §1
Electrophysiological experiments were carried out in 35-mm tissue culture dishes on the stage of an inverted phase-contrast microscope. Whole-cell currents were recorded by the whole-cell variant of the patch clamp technique described by Hamill et al. (Pflugers Arch. 391:85-100 (1981)). […]
as §3

[4] = system: non-NMDA glutamate receptor; experiment: Whole-cell patch clamp, kainate- or AMPA-induced currents in cultured chick spinal cord neurons; assay type: cell-based
Experimental: as §1
as §2, with “All experiments were performed at room temperature (23°-25° C.).” left out
as §3

C[C@]12CCC(=O)C=C1CC[C@@H]1[C@@H]2[C@@H](O)C[C@@]2(C)[C@H]1CC[C@]2(O)C(=O)CO [Hydrocortisone, reference compound]
enhancement of NMDA-induced current (in words) ([1]; 100 μM steroid): failed to enhance
inhibition of the NMDA response ([1]; 100 μM steroid, n=6, mean ±SEM): 15±2.4%

NCC(=O)O [glycine, reference compound]
potentiation of the NMDA response by glycine in the presence of pregnenolone sulfate ([1]; 10 μM glycine, 100 μM pregnenolone sulfate present): still evident

CC(=O)C1CCC2C3CC=C4CC(OS(=O)(=O)O)CCC4(C)C3CCC12C (centres unmarked) [pregnenolone sulfate]
potentiation of the NMDA response in the presence of maximal glycine versus without added glycine ([1]; 10 μM glycine present): did not differ significantly
increase of response to NMDA ([1]; 30 μM NMDA, 100 μM steroid, -70 mV): approximately threefold
enhancement of the NMDA response (percent change) ([1]; 100 μM NMDA, n=4, mean ±SEM): 86±7.5%
enhancement of the NMDA response (percent change) ([1]; 1 mM NMDA, n=2, mean ±SEM): 1.3±1.3%
increase in the ionic current across the cellular membrane ([1]; appropriate concentration (summary statement)): 3 fold
EC50 ([1]; read-out: EC50 for enhancement of the NMDA response, FIG. 2 dose response): 57 µM
inhibition of the glycine response ([2]; 5 μM pregnenolone sulfate): 61±2%
inhibition of the glycine response ([2]; 100 μM pregnenolone sulfate): 91±2%
effect on glycine receptor-mediated ion channel activity (in words) ([2]; summary statement): slight decrease
EC50 ([3]; FIG. 2 dose response, read-out: EC50 for inhibition of the GABA response): 7 µM
effect on GABA receptor-mediated ion channel activity (in words) ([3]; summary statement): slight decrease
effect on response elicited by AMPA ([4]; AMPA-induced current): slightly inhibited
effect on response elicited by kainate ([4]; kainate-induced current): slightly inhibited
effect on non-NMDA glutamate-induced activity (in words) ([4]; summary statement): inhibited
